Experimental data taken from patent US4423210A, “Intermediates for the preparation of 3-demethoxyfortimicins” (Abbott Laboratories, priority 1982, dated 1983).
Counter-ions that a name gives are not always drawn. Like-named read-outs stand apart in the source and are kept apart here.

Tests used:
[1] = system: E. coli BL 3676 (Res); assay: in vitro antibiotic activity, two-fold agar dilution (MIC); format: cell-based; details: Escherichia coli
Description: (§1) The in vitro activity of 3-demethoxyfortimicin A of Example 10 is determined by a two-fold dilution test using 10 ml. of Mueller-Hinton agar per Petri plate. The agar plates are innoculated with approximately 1×10^5 of the test organisms indicated in Table II, delivered to the agar surface by a Steers replicator. The innoculated plates are incubated for 24 hours at 35° C. in the presence of varying concentrations of 3-demethoxyfortimicin A tetrahydrochloride of Example 10 or fortimicin A sulfate as a comparative antibiotic.

[2] = system: E. coli JUHL; assay: as above; format: cell-based; details: Escherichia coli
Description: as §1

[3] = system: Enterobacter aerogenes 13048; assay: as above; format: cell-based
Description: as §1

[4] = system: Kleb. pneumoniae KY 4262; assay: as above; format: cell-based; details: Klebsiella pneumoniae
Description: as §1

[5] = system: Proteus mirabilis Fin. #9; assay: as above; format: cell-based
Description: as §1

[6] = system: Proteus rettgeri U6333; assay: as above; format: cell-based; details: Providencia rettgeri
Description: as §1

[7] = system: Proteus vulgaris JJ; assay: as above; format: cell-based
Description: as §1

[8] = system: Providencia 1577; assay: as above; format: cell-based
Description: as §1

[9] = system: Pseudo. aeruginosa BMH #10; assay: as above; format: cell-based; details: Pseudomonas aeruginosa
Description: as §1

[10] = system: Pseudo. aeruginosa KY 8512; assay: as above; format: cell-based; details: Pseudomonas aeruginosa
Description: as §1

[11] = system: Pseudo. aeruginosa KY 8516; assay: as above; format: cell-based; details: Pseudomonas aeruginosa
Description: as §1

[12] = system: Serratia marcescens 4003; assay: as above; format: cell-based
Description: as §1

[13] = system: Shigella sonnei 9290; assay: as above; format: cell-based; details: Mueller-Hinton agar, 24 hours, 35° C.
Description: as §1

[14] = system: Staph. aureus Smith; assay: as above; format: cell-based; details: Staphylococcus aureus
Description: as §1

[15] = system: Strep. faecalis 10541; assay: as above; format: cell-based
Description: as §1

[16] = system: E. coli 76-2; assay: as above; format: cell-based, Escherichia coli
Description: as §1

[17] = system: Kleb. pneumoniae 10031; assay: as above; format: cell-based, Klebsiella pneumoniae
Description: as §1

[18] = system: Pseudo aeruginosa 27853; assay: as above; format: cell-based, Pseudomonas aeruginosa
Description: as §1

[19] = system: Pseudo. aeruginosa 209; assay: as above; format: cell-based, Pseudomonas aeruginosa
Description: as §1

[20] = system: Sal. typhimurium Ed. #9; assay: as above; format: cell-based, Salmonella typhimurium; details: Salmonella enterica
Description: as §1

[21] = system: strains tested (Table II); assay: overall antibiotic activity relative to fortimicin A sulfate; format: cell-based
Description: as §1

COC1C(O)C(N)C(OC2OC(C(C)N)CCC2N)C(O)C1N(C)C(=O)CN (stereo not drawn) [Fortimicin A Sulfate, fortimicin A sulfate, reference compound]
MIC ([1]; 24 h): 25 mg/L | MIC ([2]; 24 h): 3.1 mg/L | MIC ([3]; Klebsiella aerogenes, 13048, 24 h): 3.1 mg/L | MIC ([4]; KY4262, 24 h): 6.2 mg/L | MIC ([5]; Proteus mirabilis, 24 h): 3.1 mg/L | MIC ([6]; U6333, 24 h): 12.5 mg/L | MIC ([7]; Proteus vulgaris, 24 h): 3.1 mg/L | MIC ([8]; Providencia, 1577, 24 h): 1.56 mg/L | MIC ([9]; 24 h): 0.78 mg/L | MIC ([10]; KY8512, 24 h): 6.2 mg/L | MIC ([11]; KY8516, 24 h): 6.2 mg/L | MIC ([12]; Serratia marcescens, 4003, 24 h): 3.1 mg/L | MIC [13]: 6.2 mg/L | MIC ([14]; 24 h): 0.78 mg/L | MIC ([15]; Enterococcus faecalis, 10541, 24 h): 50 mg/L | MIC ([16]; Escherichia coli, 762, 24 h): 3.1 mg/L | MIC ([17]; Klebsiella pneumoniae, 10031, 24 h): 1.56 mg/L | MIC ([18]; Pseudomonas aeruginosa, 27853, 24 h): 12.5 mg/L | MIC ([19]; Pseudomonas aeruginosa, 209, 24 h): 100 mg/L | MIC ([20]; TYPHIMURIUM, 24 h): 3.1 mg/L

CC(N)C1CCC(N)C(OC2C(N)C(O)CC(N(C)C(=O)CN)C2O)O1 (stereo not drawn) [3-Demethoxyfortimicin A tetrahydrochloride]
MIC ([1]; E. coli BL 3676 (Res), Mueller-Hinton agar, 24 hours, 35° C., read-out: MIC): 25 mg/L | MIC ([2]; E. coli JUHL, Mueller-Hinton agar, 24 hours, 35° C., read-out: MIC): 3.1 mg/L | MIC ([3]; Klebsiella aerogenes, Enterobacter aerogenes 13048, Mueller-Hinton agar, 24 hours, 35° C., read-out: MIC): 3.1 mg/L | MIC ([4]; KY4262, Kleb. pneumoniae KY 4262, Mueller-Hinton agar, 24 hours, 35° C., read-out: MIC): 3.1 mg/L | MIC ([5]; Proteus mirabilis Fin. #9, Mueller-Hinton agar, 24 hours, 35° C., read-out: MIC): 3.1 mg/L | MIC ([6]; Proteus rettgeri U6333, Mueller-Hinton agar, 24 hours, 35° C., read-out: MIC): 6.2 mg/L | MIC ([7]; Proteus vulgaris JJ, Mueller-Hinton agar, 24 hours, 35° C., read-out: MIC): 3.1 mg/L | MIC ([8]; Providencia 1577, Mueller-Hinton agar, 24 hours, 35° C., read-out: MIC): 1.56 mg/L | MIC ([9]; Pseudo. aeruginosa BMH #10, Mueller-Hinton agar, 24 hours, 35° C., read-out: MIC): 0.78 mg/L | MIC ([10]; KY8512, Pseudo. aeruginosa KY 8512, Mueller-Hinton agar, 24 hours, 35° C., read-out: MIC): 3.1 mg/L | MIC ([11]; KY8516, Pseudo. aeruginosa KY 8516, Mueller-Hinton agar, 24 hours, 35° C., read-out: MIC): 3.1 mg/L | MIC ([12]; Serratia marcescens 4003, Mueller-Hinton agar, 24 hours, 35° C., read-out: MIC): 1.56 mg/L | MIC [13]: 3.1 mg/L | MIC ([14]; Staph. aureus Smith, Mueller-Hinton agar, 24 hours, 35° C., read-out: MIC): 0.78 mg/L | MIC ([15]; Enterococcus faecalis, Strep. faecalis 10541, Mueller-Hinton agar, 24 hours, 35° C., read-out: MIC): 25 mg/L | MIC ([16]; Escherichia coli, 762, E. coli 76-2, Mueller-Hinton agar, 24 hours, 35° C., read-out: MIC): 1.56 mg/L | MIC ([17]; Klebsiella pneumoniae, Kleb. pneumoniae 10031, Mueller-Hinton agar, 24 hours, 35° C., read-out: MIC): 1.56 mg/L | MIC ([18]; Pseudomonas aeruginosa, Pseudo aeruginosa 27853, Mueller-Hinton agar, 24 hours, 35° C., read-out: MIC): 6.2 mg/L | MIC ([19]; Pseudomonas aeruginosa, Pseudo. aeruginosa 209, Mueller-Hinton agar, 24 hours, 35° C., read-out: MIC): 100 mg/L | MIC ([20]; Sal. typhimurium Ed. #9, Mueller-Hinton agar, 24 hours, 35° C., read-out: MIC): 3.1 mg/L | activity relative to that of fortimicin A sulfate ([21]; against many of the susceptible strains tested): ~200% | overall activity relative to that of fortimicin A sulfate ([21]; overall, all strains of Table II): approximately 137%
